Experimental data as given in ChEMBL document CHEMBL2073955, “Proton/peptide cotransporter (PEPT 2) from human kidney: functional characterization and chromosomal localization” (Biochim Biophys Acta, 1995).
Where a SMILES comes first, the peptide text is derived from it.

T1: Solute carrier family 15 member 2 (Homo sapiens, UniProt Q16348)
T1 sequence (Q16348 whole entry): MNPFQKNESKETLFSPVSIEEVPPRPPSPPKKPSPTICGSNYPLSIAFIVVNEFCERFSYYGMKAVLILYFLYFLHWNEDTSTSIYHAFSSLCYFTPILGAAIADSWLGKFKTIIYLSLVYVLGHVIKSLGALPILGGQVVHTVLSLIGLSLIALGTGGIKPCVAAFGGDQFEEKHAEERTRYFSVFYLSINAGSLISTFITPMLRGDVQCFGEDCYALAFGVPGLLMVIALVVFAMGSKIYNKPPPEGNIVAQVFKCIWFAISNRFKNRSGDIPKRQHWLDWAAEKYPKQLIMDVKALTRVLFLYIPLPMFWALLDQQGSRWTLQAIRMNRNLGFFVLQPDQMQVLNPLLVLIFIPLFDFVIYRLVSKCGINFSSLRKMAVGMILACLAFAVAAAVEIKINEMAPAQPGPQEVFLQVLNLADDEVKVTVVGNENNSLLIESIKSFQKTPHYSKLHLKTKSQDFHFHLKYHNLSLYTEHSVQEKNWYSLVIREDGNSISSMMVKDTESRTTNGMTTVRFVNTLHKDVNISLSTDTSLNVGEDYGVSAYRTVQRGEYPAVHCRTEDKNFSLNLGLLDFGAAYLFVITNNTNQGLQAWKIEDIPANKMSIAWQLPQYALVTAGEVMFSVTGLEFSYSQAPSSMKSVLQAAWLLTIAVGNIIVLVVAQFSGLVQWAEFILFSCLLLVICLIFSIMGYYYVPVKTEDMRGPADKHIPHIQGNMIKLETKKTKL

T2: Solute carrier family 15 member 1 (Homo sapiens, UniProt P46059)
T2 sequence (P46059 whole entry): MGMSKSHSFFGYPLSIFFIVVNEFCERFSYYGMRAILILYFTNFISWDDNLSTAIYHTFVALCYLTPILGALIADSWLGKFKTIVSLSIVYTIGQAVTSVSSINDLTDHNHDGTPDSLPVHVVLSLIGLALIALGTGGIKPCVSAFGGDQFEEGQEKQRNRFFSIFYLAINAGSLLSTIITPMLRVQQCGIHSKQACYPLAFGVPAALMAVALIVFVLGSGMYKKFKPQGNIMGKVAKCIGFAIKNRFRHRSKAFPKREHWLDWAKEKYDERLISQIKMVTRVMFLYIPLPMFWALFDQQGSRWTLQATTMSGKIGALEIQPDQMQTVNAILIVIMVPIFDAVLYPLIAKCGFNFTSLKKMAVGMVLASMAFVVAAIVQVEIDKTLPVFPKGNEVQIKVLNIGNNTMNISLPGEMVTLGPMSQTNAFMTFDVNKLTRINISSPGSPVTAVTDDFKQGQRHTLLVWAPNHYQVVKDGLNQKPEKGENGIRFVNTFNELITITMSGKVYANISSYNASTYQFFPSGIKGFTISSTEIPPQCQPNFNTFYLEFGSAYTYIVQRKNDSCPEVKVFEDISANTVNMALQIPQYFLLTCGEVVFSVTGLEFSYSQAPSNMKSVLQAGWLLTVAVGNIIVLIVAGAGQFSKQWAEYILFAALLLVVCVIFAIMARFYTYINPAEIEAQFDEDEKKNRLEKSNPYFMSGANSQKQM


How the values were obtained:
Format in all cases: functional, cell-based
[1] = biological target: T1, Solute carrier family 15 member 2; test: TP_TRANSPORTER: inhibition of Gly-Sar uptake in PEPT2-expressing HeLa cells
[2] = biological target: T2, Solute carrier family 15 member 1; test: TP_TRANSPORTER: inhibition of Gly-Sar uptake in PEPT1-expressing HeLa cells
[3] = substrate: CN(CC(=O)O)C(=O)CN; test: TP_TRANSPORTER: uptake in PEPT2-expressing HeLa cells

Ki [1]	Ki [2]	Molecule	Km [3]
6 µM	78 µM	C[C@H](N)C(=O)N[C@@H](C)C(=O)O (H-Ala-Ala-OH)	
23 µM	419 µM	C[C@H](NC(=O)[C@@H](N)CCCCN)C(=O)O (H-Lys-Ala-OH)	
8 µM	108 µM	NCCCC[C@H](NC(=O)[C@@H](N)CC(=O)O)C(=O)O (H-Asp-Lys-OH)	
11 µM	117 µM	C[C@H](N)C(=O)N[C@@H](CCCCN)C(=O)O (H-Ala-Lys-OH)	
18 µM	78 µM	C[C@H](N)C(=O)N[C@@H](CC(=O)O)C(=O)O (H-Ala-Asp-OH)	
		Solute carrier family 15 member 2 (Homo sapiens), Q16348 (protein) MNPFQKNESKETLFSPVSIEEVPPRPPSPPKKPSPTICGSNYPLSIAFIVVNEFCERFSYYGMKAVLILYFLYFLHWNEDTSTSIYHAFSSLCYFTPILGAAIADSWLGKFKTIIYLSLVYVLGHVIKSLGALPILGGQVVHTVLSLIGLSLIALGTGGIKPCVAAFGGDQFEEKHAEERTRYFSVFYLSINAGSLISTFITPMLRGDVQCFGEDCYALAFGVPGLLMVIALVVFAMGSKIYNKPPPEGNIVAQVFKCIWFAISNRFKNRSGDIPKRQHWLDWAAEKYPKQLIMDVKALTRVLFLYIPLPMFWALLDQQGSRWTLQAIRMNRNLGFFVLQPDQMQVLNPLLVLIFIPLFDFVIYRLVSKCGINFSSLRKMAVGMILACLAFAVAAAVEIKINEMAPAQPGPQEVFLQVLNLADDEVKVTVVGNENNSLLIESIKSFQKTPHYSKLHLKTKSQDFHFHLKYHNLSLYTEHSVQEKNWYSLVIREDGNSISSMMVKDTESRTTNGMTTVRFVNTLHKDVNISLSTDTSLNVGEDYGVSAYRTVQRGEYPAVHCRTEDKNFSLNLGLLDFGAAYLFVITNNTNQGLQAWKIEDIPANKMSIAWQLPQYALVTAGEVMFSVTGLEFSYSQAPSSMKSVLQAAWLLTIAVGNIIVLVVAQFSGLVQWAEFILFSCLLLVICLIFSIMGYYYVPVKTEDMRGPADKHIPHIQGNMIKLETKKTKL	74 µM
